Test system: HCV 1b genotype
Assay: HCV Replicon assay (HCV-neo replicon cells, wild-type)
Type: cell-based
Settings: HCV 1b genotype replicon
Procedure: An HCV Replicon assay was utilized in the present disclosure, and was prepared, conducted and validated as described in commonly owned PCT/US2006/022197 and in O'Boyle et. al. Antimicrob Agents Chemother. 2005 April; 49 (4):1346-53. Assay methods incorporating luciferase reporters have also been used as described (Apath.com).
HCV-neo replicon cells and replicon cells containing mutations in the NS5A region were used to test the currently described family of compounds. The compounds were determined to have more than 10-fold less inhibitory activity on cells containing mutations than wild-type cells. Thus, the compounds of the present disclosure can be effective in inhibiting the function of the HCV NS5A protein and are understood to be as effective in combinations as previously described in application PCT/US2006/022197 and commonly owned WO/O4014852. Further, the compounds of the present disclosure can be effective against the HCV 1b genotype. It should also be understood that the compounds of the present disclosure can inhibit multiple genotypes of HCV. […] In one embodiment, compounds of the present disclosure are inhibitory versus 1a, 1b, 2a, 2b, 3a, 4a, and 5a genotypes.

[1] = Hepatitis C virus, class symbols
[2] = Hepatitis C virus, numeric values

SMILES	EC50 [1]	other results
CC(=O)N1CCC[C@H]1c1nc2cc(C#Cc3ccc4[nH]c([C@@H]5CCCN5C(=O)OCc5ccccc5)nc4c3)ccc2[nH]1 [Example M54.26, benzyl (2S)-2-(5-((2-((2S)-1-acetyl-2-pyrrolidinyl)-1H-benzimidazol-5-yl)ethynyl)-1H-benzimidazol-2-yl)-1-pyrrolidine-carboxylate]	0.00457 to 0.099 µM	–
O=C(Cc1ccccc1)N1CCC[C@H]1c1nc2cc(-c3ccc4nc([C@@H]5CCCN5C(=O)Cc5ccccc5)[nH]c4c3)ccc2[nH]1 [Example M39, 2,2′-bis((2S)-1-(phenylacetyl)-2-pyrrolidinyl)-1H,1′H-5,5′-bibenzimidazole]	0.1 to 0.999 µM	–
CC(=O)N1CCC[C@H]1c1nc2ccc(C#Cc3ccc4[nH]c([C@@H]5CCCN5C(=O)N5CCN(C)CC5)nc4c3)cc2[nH]1 [Example M55, 5-((2-((2S)-1-acetyl-2-pyrrolidinyl)-1H-benzimidazol-6-yl)ethynyl)-2-((2S)-1-((4-methyl-1-piperazinyl)carbonyl)-2-pyrrolidinyl)-1H-benzimidazole]	0.1 to 0.999 µM	–
CC(=O)N1CCC[C@H]1c1nc2ccc(C#Cc3ccc4[nH]c([C@@H]5CCCN5C(=O)[C@H]5CCCO5)nc4c3)cc2[nH]1 [Example M54.25, 5-((2-((2S)-1-acetyl-2-pyrrolidinyl)-1H-benzimidazol-6-yl)ethynyl)-2-((2S)-1-((2R)-tetrahydro-2-furanylcarbonyl)-2-pyrrolidinyl)-1H-benzimidazole]	0.1 to 0.999 µM	–
CC(=O)N1CCC[C@H]1c1nc2ccc(C#Cc3ccc4[nH]c([C@@H]5CCCN5C(=O)Cc5cccnc5)nc4c3)cc2[nH]1 [Example M54.21, 5-((2-((2S)-1-acetyl-2-pyrrolidinyl)-1H-benzimidazol-6-yl)ethynyl)-2-((2S)-1-(3-pyridinylacetyl)-2-pyrrolidinyl)-1H-benzimidazole]	0.00457 to 0.099 µM	–
CCCOc1ccccc1C(=O)N1CCC[C@H]1c1nc2ccc(C#Cc3ccc4[nH]c([C@@H]5CCCN5C(=O)[C@H]5CCCO5)nc4c3)cc2[nH]1 [Example M54.12, 5-((2-((2S)-1-(2-propoxybenzoyl)-2-pyrrolidinyl)-1H-benzimidazol-6-yl)ethynyl)-2-((2S)-1-((2R)-tetrahydro-2-furanylcarbonyl)-2-pyrrolidinyl)-1H-benzimidazole]	0.1 to 0.999 µM	–
C[C@](O)(C(=O)N1CCC[C@H]1c1nc2ccc(-c3ccc(-c4ccc5nc([C@@H]6CCCN6C(=O)[C@](C)(O)c6ccccc6)[nH]c5c4)o3)cc2[nH]1)c1ccccc1 [JG1, (2R,2′R)-1,1′-(2,5-furandiylbis(1H-benzimidazole-5,2-diyl(2S)-2,1-pyrrolidinediyl))bis(1-oxo-2-phenyl-2-propanol)]	0.00457 to 0.099 µM	–
COC(=O)N[C@H](C(=O)N1CCC[C@H]1c1nc2cc(-c3ccc(Oc4cccc5[nH]c([C@@H]6CCCN6C(=O)[C@@H](NC(=O)OC)C(C)C)nc45)cc3)ccc2[nH]1)C(C)C [Example V11, Methyl((1S)-1-(((2S)-2-(4-(4-(2-((2S)-1-((2S)-2-((methoxycarbonyl)amino)-3-methylbutanoyl)-2-pyrrolidinyl)-1H-benzimidazol-5-yl)phenoxy)-1H-benzimidazol-2-yl)-1-pyrrolidinyl)carbonyl)-2-methylpropyl)carbamate]	< 0.00457 µM	–
COC(=O)N[C@@H](C)C(=O)N1CCC[C@H]1c1nc2cc(-c3cnc(-c4cccc5[nH]c([C@@H]6CCCN6C(=O)[C@H](C)NC(=O)OC)nc45)o3)ccc2[nH]1 [Example J8, methyl ((1S)-2-((2S)-2-(5-(2-(2-((2S)-1-(N-(methoxy-carbonyl)-L-alanyl)-2-pyrrolidinyl)-1H-benzimidazol-4-yl)-1,3-oxazol-5-yl)-1H-benzimidazol-2-yl)-1-pyrrolidinyl)-1-methyl-2-oxoethyl) carbamate]	< 0.00457 µM	–
C[C@@H](c1nc2cc(C#Cc3ccc4[nH]c([C@H](C)N(C)C(=O)Cc5ccccc5)nc4c3)ccc2[nH]1)N(C)C(=O)Cc1ccccc1 [Example M32]	–	EC50 (class symbols): < 0.00457 µM
CCCO[C@@H]1C[C@@H](c2nc3cc(CCc4ccc5nc([C@@H]6C[C@@H](OCCC)CN6C(=O)OCc6ccccc6)[nH]c5c4)ccc3[nH]2)N(C(=O)OCc2ccccc2)C1 [Example F6, benzyl (2S,4R)-2-(5-(2-(2-((2S,4R)-1-((benzyloxy)carbonyl)-4-propoxy-2-pyrrolidinyl)-1H-benzimidazol-6-yl)ethyl)-1H-benzimidazol-2-yl)-4-propoxy-1-pyrrolidinecarboxylate]	–	EC50 [2]: 0.48 µM
COc1cccc2c(C(=O)N3CCC[C@H]3c3nc4cc(-c5cnc(-c6cccc7[nH]c([C@@H]8CCCN8C(=O)c8nc(Cl)cc9c(OC)cccc89)nc67)o5)ccc4[nH]3)nc(Cl)cc12 [Example J15, 3-chloro-1-(((2S)-2-(4-(5-(2-((2S)-1-((3-chloro-5-methoxy-1-isoquinolinyl)carbonyl)-2-pyrrolidinyl)-1H-benzimidazol-5-yl)-1,3-oxazol-2-yl)-1H-benzimidazol-2-yl)-1-pyrrolidinyl)carbonyl)-5-methoxy-isoquinoline]	–	EC50 [2]: > 10 µM
COC(=O)N[C@@H](C)C(=O)N1CCC[C@H]1c1nc2cc(C#Cc3ccc4[nH]c([C@@H]5CCCN5C(=O)[C@H](C)NC(=O)OC)nc4c3)ccc2[nH]1 [Example M25, methyl ((1S)-2-((2S)-2-(5-((2-((2S)-1-(N-(methoxycarbonyl)-L-alanyl)-2-pyrrolidinyl)-1H-benzimidazol-5-yl)ethynyl)-1H-benzimidazol-2-yl)-1-pyrrolidinyl)-1-methyl-2-oxoethyl)carbamate]	0.00457 to 0.099 µM	–
O=C(Cc1ccccc1)N1CCC[C@H]1c1nc2cc(C#Cc3ccc4[nH]c([C@@H]5CCCN5C(=O)[C@H]5CCCO5)nc4c3)ccc2[nH]1 [Example M47, 5-((2-((2S)-1-(phenylacetyl)-2-pyrrolidinyl)-1H-benzimidazol-6-yl)ethynyl)-2-((2S)-1-((2R)-tetrahydro-2-furanylcarbonyl)-2-pyrrolidinyl)-1H-benzimidazole]	< 0.00457 µM	–
CN(C)[C@@H](C(=O)N1CCC[C@H]1c1nc2cc(-c3cnc(-c4cccc5[nH]c([C@@H]6C[C@@H]7C[C@@H]7N6C(=O)[C@@H](c6ccccc6)N(C)C)nc45)o3)ccc2[nH]1)c1ccccc1 (single isomer, unassigned) [Example J25.a]	–	EC50 (class symbols): 0.00457 to 0.099 µM
CC(C)(C)OC(=O)N1CCN(C(=O)OCc2ccccc2)C(c2nc3cc(CCc4ccc5nc(C6CN(C(=O)OC(C)(C)C)CCN6C(=O)OCc6ccccc6)[nH]c5c4)ccc3[nH]2)C1 (centres unmarked) [OL8, 1-benzyl 4-tert-butyl 2-(5-(2-(2-(1-((benzyloxy)carbonyl)-4-(tert-butoxycarbonyl)-2-piperazinyl)-1H-benzimidazol-6-yl)ethyl)-1H-benzimidazol-2-yl)-1,4-piperazinedicarboxylate]	–	EC50 [2]: 2.88 µM
COC(=O)N[C@@H](C(=O)N1[C@@H]2C[C@@H]2C[C@H]1c1nc2cc(Oc3cccc(-c4ccc5[nH]c([C@@H]6C[C@H]7C[C@H]7N6C(=O)[C@H](NC(=O)OC)C(C)C)nc5c4)c3)ccc2[nH]1)C(C)C [Example V3, methyl ((1R)-1-(((1R,3S,5R)-3-(5-(3-(2-((1R,3S,5R)-2-((2R)-2-((methoxycarbonyl)amino)-3-methylbutanoyl)-2-azabicyclo[3.1.0]hex-3-yl)-1H-benzimidazol-5-yl)phenoxy)-1H-benzimidazol-2-yl)-2-azabicyclo[3.1.0]hex-2-yl)carbonyl)-2-methylpropyl) carbamate]	–	EC50 (class symbols): 0.00457 to 0.099 µM

Reference: patent publication US7906655B2, “Hepatitis C virus inhibitors” (Bristol-Myers Squibb Company, priority 2008, dated 2011)
